Article PMC6862253, “Synthesis and Evaluation of Anticancer Activity of New 4-Acyloxy Derivatives of Robustic Acid” (International Journal of Molecular Sciences, 2019)
Each block holds one molecule with its values, some of them ahead of it.

What was measured:
[1] = tested on: human leukemic cells HL-60; experiment: MTS anti-proliferative assay, HL-60; assay type: cell-based; conditions: mean ± SD
Procedure: (§1) The MTS (3-(4,5-dimethylthiazole-2-yl)-5-(3-carboxymethoxyphenyl)-2-(4-sulfophenyl)-2H- tetrazolium) (Promega, Madison, WI, USA) assay was used to determine the IC50 value for all compounds, according to [26]. We used a panel of five human carcinoma cell lines and two normal cells including HL-60, A549, SMMC-7721, HepG2, Hela, LO2 and BEAS-2B. Cells were seeded in 96-well plates at a density of 3 × 10^3–1.5 × 10^4 cells/well in 100 μL medium (DMEM or RMPI1640) and incubated for 12–24 h at 37 °C. Subsequently, cells were exposed to drugs in an additional 100 μL medium and were further incubated at 37 °C for 48 h. In brief, 100 μL MTS reagent supplement with 100 μL medium was added directly to the wells and cells were incubated at 37 °C for a minimum of 2 h. Colorimetric measurements were recorded at 492 nm. Background absorbance was corrected using triplicate sets of wells[…] containing medium only (no cells), and MTS reagent was added per experimental well. Each experiment was performed at least three times, and values in results are represented as mean ± SD.

[2] = tested on: human normal liver cells LO2; experiment: MTS cytotoxicity assay, normal LO2 cells; assay type: cell-based; conditions: mean ± SD
Procedure: as §1

[3] = tested on: human normal lung epithelial cells BEAS-2B; experiment: MTS cytotoxicity assay, normal BEAS-2B cells; assay type: cell-based; conditions: 48 h, mean ± SD
Procedure: as §1

[4] = tested on: human hepatocellular carcinoma cells HepG2; experiment: MTS anti-proliferative assay, HepG2; assay type: cell-based; conditions: mean ± SD
Procedure: as §1

[5] = tested on: human non-small cell lung carcinoma cells A-549; experiment: MTS anti-proliferative assay, A-549; assay type: cell-based; conditions: mean ± SD
Procedure: as §1

[6] = tested on: human cervical carcinoma cells Hela; experiment: MTS anti-proliferative assay, Hela; assay type: cell-based; conditions: 48 h, mean ± SD
Procedure: as §1

[7] = tested on: human hepatic carcinoma cells SMMC-7721; experiment: MTS anti-proliferative assay, SMMC-7721; assay type: cell-based; conditions: mean ± SD
Procedure: as §1

[8] = target: T1, DNA topoisomerase I (Topo I) (Bos taurus, UniProt F1MN93); experiment: Topo I inhibitory activity, supercoiled DNA unwinding, agarose gel; assay type: biochemical
T1 construct: purchased Takara Bio Inc
T1 sequence (F1MN93 1-767): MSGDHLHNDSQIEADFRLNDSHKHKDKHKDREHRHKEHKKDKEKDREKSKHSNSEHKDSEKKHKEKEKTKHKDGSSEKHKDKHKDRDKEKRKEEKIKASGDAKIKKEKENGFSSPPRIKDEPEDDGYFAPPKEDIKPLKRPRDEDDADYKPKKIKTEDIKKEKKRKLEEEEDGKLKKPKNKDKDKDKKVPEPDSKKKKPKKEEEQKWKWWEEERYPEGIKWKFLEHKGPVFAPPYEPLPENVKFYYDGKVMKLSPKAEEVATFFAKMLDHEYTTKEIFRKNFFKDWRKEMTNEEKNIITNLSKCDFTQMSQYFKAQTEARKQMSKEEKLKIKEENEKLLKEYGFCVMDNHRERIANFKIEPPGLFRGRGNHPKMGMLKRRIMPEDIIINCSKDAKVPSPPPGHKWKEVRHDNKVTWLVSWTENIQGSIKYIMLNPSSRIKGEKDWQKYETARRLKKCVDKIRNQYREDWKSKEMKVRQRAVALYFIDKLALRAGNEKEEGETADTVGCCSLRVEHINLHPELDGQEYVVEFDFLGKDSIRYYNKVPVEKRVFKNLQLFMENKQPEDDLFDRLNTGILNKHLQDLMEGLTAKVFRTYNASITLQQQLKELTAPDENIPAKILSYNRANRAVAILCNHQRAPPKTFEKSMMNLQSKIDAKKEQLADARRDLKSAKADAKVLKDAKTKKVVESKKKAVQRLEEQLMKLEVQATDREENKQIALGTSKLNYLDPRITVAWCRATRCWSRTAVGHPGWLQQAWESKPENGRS
Source text: DNA Topo I is an important enzyme in all living organisms, and it participates in many cellular metabolic processes, such as replication, transcription, recombination, and repair. DNA Topo I has been established as a molecular target of anticancer drugs. A combined study of synthesis and docking for the anti-cancer activity of novel coumarins concluded that coumarin derivatives are potent cytotoxic agents. […] Currently, discovering novel non-camptothecin inhibitors for DNA Topo I has become an important area of research. Thus, a DNA Topo I inhibitory activity assay was also carried out using the supercoiled DNA unwinding method in this study. […] Therefore, compounds 2d, 2g, and 2i were selected for further quantitative investigation (depicted in Figure 5B). […] This correlates well with the cytotoxicity to HL-60, A-549, and SMMC-7721 cells. Thus, we infer that the anti-proliferative activity of 4-acyloxy derivatives of RA to these three cells may be related to Topo I. Supercoiled […] DNA was used as a substrate to determine the Topo I catalytic activity. Commercial samples of Topo I and pBR322 were obtained from Takara Bio Inc. The buffer solutions were prepared using 500 mM KAc, 200 mM Tris-Ac, 100 mM Mg(Ac)2, and 1 mg/mL BSA. The procedure used for determination of enzyme inhibitory activity was similar to one reported by Xu et al..

Structure (SMILES): CC[C@@]1(O)C(=O)OCc2c1cc1n(c2=O)Cc2cc3ccccc3nc2-1 [CPT, camptothecin]
IC50 ([1]; Homo sapiens, HL-60, 48 h): 12.2 ± 1.06 µM
IC50 ([2]; Homo sapiens, L02, 48 h): 0.03 ± 0.002 µM
IC50 ([3]; Homo sapiens, BEAS-2B): 2.16 ± 0.47 µM
IC50 ([4]; Homo sapiens, HepG2, 48 h): 1.3 ± 0.62 µM
IC50 ([5]; Homo sapiens, A549, 48 h): 15.3 ± 1.22 µM
IC50 ([6]; Homo sapiens, HeLa): 0.5 ± 0.08 µM
IC50 ([7]; Homo sapiens, SMMC-7721, 48 h): 18.9 ± 4.12 µM

Structure (SMILES): COc1ccc(-c2c(OC(=O)c3ccc(F)cc3)c3c(OC)c4c(cc3oc2=O)OC(C)(C)C=C4)cc1 [Compound 2f, 4-O-(p-Fluorobenzoyl)robustic acid]
Topo I inhibitory activity ([8]; gel electrophoresis): moderate inhibitory activities
IC50 ([1]; Homo sapiens, HL-60, 48 h): > 100 µM
IC50 ([2]; Homo sapiens, L02, 48 h): > 100 µM
IC50 ([3]; Homo sapiens, BEAS-2B): > 100 µM
IC50 ([4]; Homo sapiens, HepG2, 48 h): 87.3 ± 2.14 µM
IC50 ([5]; Homo sapiens, A549, 48 h): > 100 µM
IC50 ([6]; Homo sapiens, HeLa): 65.1 ± 1.27 µM
melting point: 236.8 to 239.6 °C
IC50 ([7]; Homo sapiens, SMMC-7721, 48 h): 66.2 ± 5.7 µM

Structure (SMILES): COC1=c2c(OC(C)=O)c(-c3ccc(OC)cc3)c(=O)oc2=CC2OC(C)(C)C=CC12 (centres unmarked) [Compound 2j, 4-O-Acetylrobustic acid]
melting point: 189.9 to 192.1 °C

Structure (SMILES): COc1ccc(-c2c(O)c3c(OC)c4c(cc3oc2=O)OC(C)(C)C=C4)cc1 [RA, robustic acid]
Topo I inhibitory activity ([8]; concentrations lower than 10 mM): no inhibitory activity was found
IC50 ([1]; Homo sapiens, HL-60, 48 h): > 100 µM
IC50 ([2]; Homo sapiens, L02, 48 h): > 100 µM
IC50 ([3]; Homo sapiens, BEAS-2B): > 100 µM
IC50 ([4]; Homo sapiens, HepG2, 48 h): > 100 µM
IC50 ([5]; Homo sapiens, A549, 48 h): > 100 µM
IC50 ([6]; Homo sapiens, HeLa): > 100 µM
IC50 ([7]; Homo sapiens, SMMC-7721, 48 h): > 100 µM

Structure (SMILES): N.N.[Cl][Pt][Cl] [cisplatin]
IC50 ([1]; 48 h): 14.2 ± 0.56 µM
IC50 ([2]; 48 h): < 0.008 µM
IC50 [3]: 57.7 ± 3.1 µM
IC50 ([4]; 48 h): 10.6 ± 1.4 µM
IC50 ([5]; 48 h): 25.4 ± 1.06 µM
IC50 [6]: 5.83 ± 0.14 µM
IC50 ([7]; 48 h): 1.32 ± 0.97 µM

Results, then the molecule that gave them:

melting point: 266.4 to 273.4 °C
Structure (SMILES): COC1=c2c(OC(=O)c3ccccc3)c(-c3ccc(OC)cc3)c(=O)oc2=CC2OC(C)(C)C=CC12 (centres unmarked) [Compound 2a, 4-O-Benzoyl-robustic acid]

melting point: 225.6 to 228.5 °C
Structure (SMILES): COC1=c2c(OC(=O)c3ccc(C(F)(F)F)cc3)c(-c3ccc(OC)cc3)c(=O)oc2=CC2OC(C)(C)C=CC12 (centres unmarked) [Compound 2d, 4-O-(p-Trifluoromethylbenzoyl)robustic acid]

melting point: 171.5 to 182.3 °C
Structure (SMILES): COC1=c2c(OC(=O)c3cccs3)c(-c3ccc(OC)cc3)c(=O)oc2=CC2OC(C)(C)C=CC12 (centres unmarked) [Compound 2e, 4-O-Thenoyl robustic acid]

melting point: 239.5 to 241.9 °C
Structure (SMILES): COC1=c2c(OC(=O)c3ccc([N+](=O)[O-])cc3)c(-c3ccc(OC)cc3)c(=O)oc2=CC2OC(C)(C)C=CC12 (centres unmarked) [Compound 2g, 4-O-(p-Nitrobenzoyl)robustic acid]

melting point: 246.9 to 250.2 °C
Structure (SMILES): CCc1ccc(C(=O)Oc2c(-c3ccc(OC)cc3)c(=O)oc3c2=C(OC)C2C=CC(C)(C)OC2C=3)cc1 (centres unmarked) [Compound 2h, 4-O-(p-Ethylbenzoyl)robustic acid]

melting point: 250.8 to 251.9 °C
Structure (SMILES): COC1=c2c(OC(=O)c3ccc(Br)cc3F)c(-c3ccc(OC)cc3)c(=O)oc2=CC2OC(C)(C)C=CC12 (centres unmarked) [Compound 2i, 4-O-(4-Bromo-2-fluorobenzoyl) robustic acid]
